# Test results: ChEMBL document CHEMBL5365432, “Anticancer Activities of DNA-Alkylating Pyrrole-Imidazole Polyamide Analogs Targeting RUNX Transcription Factors against p53-Mutated Pancreatic Cancer PANC-1 Cells” (J Med Chem, 2023)
# Active and inactive are the calls of the source. The rule behind the calls is not given here.
# Tests used:
# PANC-1 [1] = experiment: Anti-cancer activity against human PANC-1 cells xenografted in CB17.Cg-PrkdcscidLystbg-j/CrlCrlj mouse assessed as reduction in tumor volume at 5 mg/kg, iv administered twice a week for 3 weeks; assay type: functional, organism-based
# [2] = Cytotoxicity against human hTERT-HPNE cells assessed as cell viability at 3 uM incubated for 3 days by colorimetric assay relative to control; assay type: toxicity, cell-based; conditions: time 3 day, read-out: Activity
# PANC-1 [3] = experiment: Induction of apoptosis in human PANC-1 cells assessed as upregulation of TAp73 mRNA level at 3 uM incubated for 48 hrs by RT-qPCR analysis; assay type: functional, cell-based
# [4] = Toxicity in CB17.Cg-PrkdcscidLystbg-j/CrlCrlj mouse xenografted with human PANC-1 cells assessed as body weight loss at 5 mg/kg, iv administered twice a week for 3 weeks; assay type: organism-based; conditions: in vivo, 504 h
# PANC-1 [5] = experiment: Induction of apoptosis in human PANC-1 cells assessed as necrotic cells at 3 uM incubated for 72 hrs by Annexin V-FITC/PI staining based flow cytometry (reference value: 1.2 %); assay type: functional
# DNA [6] = experiment: Binding affinity to DNA (unknown origin) assessed as formation of DNA alkylation product at 150 uM incubated for 18 hrs measured after 20 mins by HPLC/MALDI-TOF MS analysis; assay type: nucleic-acid assay; conditions: time 18.33 hrs
# PANC-1 [7] = experiment: Induction of apoptosis in human PANC-1 cells assessed as increase in phosphorylated p53 protein level at S392 residue at 3 uM incubated for 72 hrs by proteomic profiling array; assay type: functional, cell-based
# PANC-1 [8] = experiment: Induction of apoptosis in human PANC-1 cells assessed as suppression of BCL11A mRNA level at 3 uM incubated for 48 hrs by RT-qPCR analysis; assay type: functional, cell-based
# PANC-1 [9] = experiment: Induction of apoptosis in human PANC-1 cells assessed as late apoptotic cells at 3 uM incubated for 72 hrs by Annexin V-FITC/PI staining based flow cytometry (reference value: 2.9 %); assay type: functional
# PANC-1 [10] = experiment: Induction of apoptosis in human PANC-1 cells assessed as increase in phosphorylated p53 protein level at S46 residue at 3 uM incubated for 72 hrs by proteomic profiling array; assay type: functional, cell-based
# PANC-1 [11] = experiment: Induction of apoptosis in human PANC-1 cells assessed as upregulation of TAp63 mRNA level at 3 uM incubated for 48 hrs by RT-qPCR analysis; assay type: functional, cell-based
# PANC-1 [12] = experiment: Cytotoxicity against human PANC-1 cells assessed as cell viability at 3 uM incubated for 3 days by colorimetric assay relative to control; assay type: functional; conditions: PANC-1, 72 h, time 3 day, read-out: Activity
# PANC-1 [13] = experiment: Induction of apoptosis in human PANC-1 cells assessed as increase in phosphorylated p53 protein level at S15 residue at 3 uM incubated for 72 hrs by proteomic profiling array; assay type: functional, cell-based
# DNA [14] = experiment: Binding affinity to DNA (unknown origin) assessed as DNA alkylation at RUNX-binding site at 150 uM incubated for 18 hrs by HPLC analysis; assay type: nucleic-acid assay
# PANC-1 [15] = experiment: Anti-cancer activity against human PANC-1 cells xenografted in CB17.Cg-PrkdcscidLystbg-j/CrlCrlj mouse assessed as fold change in tumor volume at 1 mg/kg, iv administered twice a week for 3 weeks relative to gemcitabine; assay type: functional
# PANC-1 [16] = experiment: Induction of apoptosis in human PANC-1 cells assessed as viable cells at 3 uM incubated for 72 hrs by Annexin V-FITC/PI staining based flow cytometry (reference value: 94.3 %); assay type: functional; conditions: read-out: Activity
# PANC-1 [17] = experiment: Induction of apoptosis in human PANC-1 cells assessed as early apoptotic cells at 3 uM incubated for 72 hrs by Annexin V-FITC/PI staining based flow cytometry (reference value: 1.5 %); assay type: functional
Compound,Activity (PANC-1 [1]),"viability at 72 h, 3 µM [2] [%]",Activity (PANC-1 [3]),Activity [4],Activity (PANC-1 [5]) [%],Activity (DNA [6]),Activity (PANC-1 [7]),Activity (PANC-1 [8]),Activity (PANC-1 [9]) [%],Activity (PANC-1 [10]),Activity (PANC-1 [11]),viability at 3 µM (PANC-1 [12]) [%],Activity (PANC-1 [13]),Activity (DNA [14]),fold change (FC) (PANC-1 [15]),viability at 3 µM (PANC-1 [16]) [%],Activity (PANC-1 [17]) [%]
CN(C)CCCNC(=O)c1cc(NC(=O)c2cc(NC(=O)c3cc(NC(=O)c4cc(NC(=O)CCCNC(=O)c5nc(NC(=O)c6cc(NC(=O)c7nc(NC(=O)c8nc(NC(=O)CCNC(=O)CCCc9ccc(N(CCCl)CCCl)cc9)cn8C)cn7C)cn6C)cn5C)cn4C)cn3C)cn2C)cn1C,Active,73.8,Active,Non-Toxic,2.4,Active,Active,Active,14,Active,inactive,67.7,Active,Active,50,68.7,15
CN(C)CCCNC(=O)c1cc(NC(=O)c2cc(NC(=O)c3cc(NC(=O)c4cc(NC(=O)CCCNC(=O)c5nc(NC(=O)c6nc(NC(=O)c7cc(NC(=O)c8nc(NC(=O)CCNC(=O)CCCc9ccc(N(CCCl)CCCl)cc9)cn8C)cn7C)cn6C)cn5C)cn4C)cn3C)cn2C)cn1C,Active,79.5,Active,Non-Toxic,1.9,Active,Active,Active,12.4,Active,inactive,74.7,Active,inactive,,73.1,12.5
CN(C)CCCNC(=O)c1nc(NC(=O)c2cc(NC(=O)c3nc(NC(=O)c4nc(NC(=O)CCCNC(=O)c5cc(NC(=O)c6cc(NC(=O)c7cc(NC(=O)c8cc(NC(=O)CCNC(=O)CCCc9ccc(N(CCCl)CCCl)cc9)cn8C)cn7C)cn6C)cn5C)cn4C)cn3C)cn2C)cn1C,,,,,,Active,,,,,,,,inactive,,,
CN(C)CCCNC(=O)c1nc(NC(=O)c2nc(NC(=O)c3cc(NC(=O)c4nc(NC(=O)CCCNC(=O)c5cc(NC(=O)c6cc(NC(=O)c7cc(NC(=O)c8cc(NC(=O)CCNC(=O)CCCc9ccc(N(CCCl)CCCl)cc9)cn8C)cn7C)cn6C)cn5C)cn4C)cn3C)cn2C)cn1C,Active,82,Active,Non-Toxic,1.6,Active,Active,Active,9.1,Active,Active,85,Active,Active,50,78.5,10.8
